Laboratory results taken from patent US12496332B2 (priority 2019, dated 2025).

Legend:
[1] = test system: A549 cells infected with influenza A virus; type: cell-based, human; conditions: for decrease of the SOD1 protein during viral infection: A549 cells treated in vitro with inhibitor of autophagy or endoplasmic reticulum stress
influenza virus [2] = test system: influenza virus; design: species or system mice (C57BL/6N or BALB/c); conditions: mouse, in vivo
influenza virus [3] = type: in vivo, mice

Cn1cnc(N)c2ncnc1-2 [3-MA, 3-methyladenine]
LC3 conversion [1]: decreased | amount of SOD1 protein [1]: increase | expression of viral protein PB1 [1]: decreased expression | decrease of the SOD1 protein during viral infection [1]: reduced significantly

O=C(O)CCCc1ccccc1 [4-PBA, 4-phenylbutyrate]
decrease of the SOD1 protein during viral infection [1]: reduced significantly | production of ROS compared to non-administration group (influenza virus [2]): decreased significantly

CC(=O)N[C@@H](CS)C(=O)O [NAC, N-acetylcysteine]
body weight (survivability) (influenza virus [3]; […], SOD1 50 units/mouse, NAC 1 mg/mouse, 4-PBA 2.5 mg/mouse, catalase 50 units/mouse): significant difference in body weight

CCN(CC)CCCC(C)Nc1ccnc2cc(Cl)ccc12 (stereo not drawn) [chloroquine]
amount of SOD1 protein [1]: more distinct than that of 3-MA | decrease of the SOD1 protein during viral infection [1]: reduced significantly

SOD1: superoxide dismutase 1, ROS scavenger; human SOD1 gene expressed in bacteria from pET-SOD1
body weight decrease (influenza virus [3]; mouse, in vivo): slightly inhibited | amount of ROS in the bronchoalveolar lavage fluid (influenza virus [2]): decreased | amount of SOD1 in lung tissue (influenza virus [2]): recovered to a level close to that before the infection
